Experimental data: ChEMBL document CHEMBL3085711, “Phosphorus-nitrogen compounds part 27. Syntheses, structural characterizations, antimicrobial and cytotoxic activities, and DNA interactions of new phosphazenes bearing secondary amino and pendant (4-fluorobenzyl)spiro groups” (2013)
Converted amounts (≈) assume the structure as drawn. The source made the active and inactive calls. No cut-off for these calls is given here.

Tests used:
Bacillus subtilis [1] = experiment: Antibacterial activity against Bacillus subtilis at 0.25 mM after 24 hrs by disk diffusion method; format: functional; conditions: read-out: DIZ
HeLa [2] = experiment: Cytotoxicity against human HeLa cells assessed as decrease in cell viability after 24 hrs by MTT assay; format: functional, cell-based
Escherichia coli [3] = experiment: Binding affinity to Escherichia coli pBR322 G/GATCC DNA assessed as DNA strand cleavage at 625 to 2500 uM preincubated for 24 hrs prior to BamHI treatment measured after 1 hr by agarose gel electrophoresis
Escherichia coli [4] = experiment: Binding affinity to Escherichia coli pBR322 DNA assessed as DNA strand cleavage at 156 to 2500 uM after 24 hrs by agarose gel electrophoresis
Bacillus subtilis [5] = experiment: Antibacterial activity against Bacillus subtilis; format: functional
HeLa [6] = experiment: Cytotoxicity against human HeLa cells assessed as decrease in cell viability at 5 to 50 ug/ml after 24 hrs by MTT assay relative to control; format: functional
Escherichia coli [7] = experiment: Binding affinity to Escherichia coli pBR322 A/AGCTT DNA assessed as DNA strand cleavage at 625 to 2500 uM preincubated for 24 hrs prior to HindIII treatment measured after 1 hr by agarose gel electrophoresis
HeLa [8] = experiment: Cytotoxicity against human HeLa cells assessed as decrease in cell survival at 10 ug/ml after 48 hrs by trypan blue exclusion assay; format: functional, cell-based
HeLa [9] = experiment: Induction of apoptosis in human HeLa cells assessed as change in cellular morphology at 25 uM after 24 hrs by propidium iodide staining-based fluorescence microscopic analysis; format: functional, cell-based
HeLa [10] = experiment: Induction of apoptosis in human HeLa cells assessed as loss of mitochondrial membrane potential at 25 uM after 24 hrs by DiOC6 staining-based fluorescence microscopic analysis; format: functional, cell-based
HeLa [11] = experiment: Induction of apoptosis in human HeLa cells at 25 uM after 48 to 72 hrs by DAPI staining-based fluorescence microscopic analysis; format: functional, cell-based
Bacillus subtilis [12] = experiment: Antibacterial activity against Bacillus subtilis at 30 ug after 24 hrs by disk diffusion method; format: functional; conditions: read-out: DIZ
Bacillus cereus [13] = experiment: Antibacterial activity against Bacillus cereus at 30 ug after 24 hrs by disk diffusion method; format: functional; conditions: read-out: DIZ
Candida albicans [14] = experiment: Antifungal activity against Candida albicans ATCC 10231 at 0.25 mM after 72 hrs by disk diffusion method; format: functional; conditions: ATCC 10231, 72 h, read-out: DIZ
Candida tropicalis [15] = experiment: Antifungal activity against Candida tropicalis ATCC 13803 at 0.25 mM after 72 hrs by disk diffusion method; format: functional; conditions: ATCC 13803, 72 h, read-out: DIZ
Candida albicans [16] = experiment: Antifungal activity against Candida albicans ATCC 10231; format: functional
Candida tropicalis [17] = experiment: Antifungal activity against Candida tropicalis ATCC 13803; format: functional
HeLa [18] = experiment: Cytotoxicity against human HeLa cells assessed as decrease in cell viability at 5 ug/ml after 24 hrs by MTT assay relative to control; format: functional, cell-based
Bacillus cereus [19] = experiment: Antibacterial activity against Bacillus cereus at 0.25 mM after 24 hrs by disk diffusion method; format: functional; conditions: read-out: DIZ
Bacillus cereus [20] = experiment: Antibacterial activity against Bacillus cereus; format: functional
HeLa [21] = experiment: Cytotoxicity against human HeLa cells assessed as decrease in cell viability at 10 to 50 ug/ml after 24 hrs by MTT assay relative to control; format: functional, cell-based
Candida albicans [22] = experiment: Antifungal activity against Candida albicans ATCC 10231 at 50 ug after 72 hrs by disk diffusion method; format: functional; conditions: ATCC 10231, 72 h, read-out: DIZ
Candida tropicalis [23] = experiment: Antifungal activity against Candida tropicalis ATCC 13803 at 50 ug after 72 hrs by disk diffusion method; format: functional; conditions: ATCC 13803, 72 h, read-out: DIZ
Bacillus subtilis [24] = experiment: Antibacterial activity against Bacillus subtilis at 10 ug after 24 hrs by disk diffusion method; format: functional; conditions: read-out: DIZ
Bacillus cereus [25] = experiment: Antibacterial activity against Bacillus cereus at 10 ug after 24 hrs by disk diffusion method; format: functional; conditions: read-out: DIZ

Q: How did the zone of inhibition at 250 µM (Bacillus subtilis [1]) turn out when CN1CCN(Cc2ccc(F)cc2)P12=NP(N1CCCC1)(N1CCCC1)=NP(N1CCCC1)(N1CCCC1)=N2 (centres undefined) was run?
A: 12.3 mm

Q: What about the Activity (HeLa [2]) of the same compound?
A: Dose-dependent effect

Q: What about the Activity (Escherichia coli [3]) of the same compound?
A: Active

Q: What about the Activity (Escherichia coli [4]) of the same compound?
A: Active

Q: And the MIC (Bacillus subtilis [5])?
A: 9.8 µM (≈ 5.84 µg/mL)

Q: How did the Activity (HeLa [6]) turn out when CN1CCN(Cc2ccc(F)cc2)P12=NP(N1CCOCC1)(N1CCOCC1)=NP(N1CCOCC1)(N1CCOCC1)=N2 (centres undefined) was run?
A: inactive

Q: What about the Activity (Escherichia coli [7]) of the same compound?
A: Active

Q: What about the Activity (Escherichia coli [4]) of the same compound?
A: Active

Q: Which results are given for CN1CCN(Cc2ccc(F)cc2)P12=NP(N1CCC3(CC1)OCCO3)(N1CCC3(CC1)OCCO3)=NP(N1CCC3(CC1)OCCO3)(N1CCC3(CC1)OCCO3)=N2 (centres undefined)?
A: Activity (HeLa [6]): inactive; Activity (HeLa [8]): Active; Activity (HeLa [9]): inactive; Activity (HeLa [10]): Active; Activity (HeLa [11]): Active; Activity (Escherichia coli [3]): Active; Activity (Escherichia coli [4]): Active

Q: For O=C(N[C@H](CO)[C@H](O)c1ccc([N+](=O)[O-])cc1)C(Cl)Cl [CHLORAMPHENICOL], which zone of inhibition at 30 µg/disc (Bacillus subtilis [12]) is on record?
A: 31 mm

Q: And the zone of inhibition at 30 µg/disc (Bacillus cereus [13])?
A: 26 mm

Q: Which zone of inhibition at 250 µM (Candida albicans [14]) does the source give for CN1CCN(Cc2ccc(F)cc2)P12=NP(N1CCCCC1)(N1CCCCC1)=NP(N1CCCCC1)(N1CCCCC1)=N2 (centres undefined) here?
A: 13.6 mm

Q: What about the zone of inhibition at 250 µM (Candida tropicalis [15]) of the same compound?
A: 17.3 mm

Q: What about the Activity (HeLa [2]) of the same compound?
A: Dose-dependent effect

Q: What about the Activity (Escherichia coli [3]) of the same compound?
A: Active

Q: What about the Activity (Escherichia coli [4]) of the same compound?
A: Active

Q: What about the MIC (Candida albicans [16]) of the same compound?
A: 156 µM (≈ 102 µg/mL)

Q: And the MIC (Candida tropicalis [17])?
A: 156 µM (≈ 102 µg/mL)

Q: How did the Activity (HeLa [6]) turn out when CCN1CCN(Cc2ccc(F)cc2)P12=NP(N1CCOCC1)(N1CCOCC1)=NP(N1CCOCC1)(N1CCOCC1)=N2 (centres undefined) was run?
A: inactive

Q: What about the Activity (Escherichia coli [7]) of the same compound?
A: Active

Q: What about the Activity (Escherichia coli [4]) of the same compound?
A: Active

Q: Which results are given for CCN1CCN(Cc2ccc(F)cc2)P12=NP(N1CCCC1)(N1CCCC1)=NP(N1CCCC1)(N1CCCC1)=N2 (centres undefined)?
A: zone of inhibition at 250 µM (Bacillus subtilis [1]): 11.5 mm; Activity (HeLa [18]): Active; Activity (HeLa [2]): Dose-dependent effect; Activity (Escherichia coli [3]): Active; Activity (Escherichia coli [4]): Active; MIC (Bacillus subtilis [5]): 9.8 µM (≈ 5.97 µg/mL)

Q: CN1CCCN(Cc2ccc(F)cc2)P12=NP(N1CCOCC1)(N1CCOCC1)=NP(N1CCOCC1)(N1CCOCC1)=N2 (centres undefined) was tested. Which Activity (HeLa [6]) did it give?
A: 58%

Q: What about the Activity (HeLa [9]) of the same compound?
A: inactive

Q: What about the Activity (HeLa [10]) of the same compound?
A: Active

Q: And the Activity (Escherichia coli [7])?
A: Active

Q: And the Activity (Escherichia coli [4])?
A: Active

Q: Which results are given for CN1CCCN(Cc2ccc(F)cc2)P12=NP(N1CCCC1)(N1CCCC1)=NP(N1CCCC1)(N1CCCC1)=N2 (centres undefined)?
A: zone of inhibition at 250 µM (Bacillus subtilis [1]): 16.5 mm; Activity (HeLa [6]): 50%; Activity (HeLa [2]): Dose-dependent effect; zone of inhibition at 250 µM (Bacillus cereus [19]): 12.6 mm; Activity (Escherichia coli [3]): Active; Activity (Escherichia coli [4]): Active; MIC (Bacillus subtilis [5]): 9.8 µM (≈ 5.97 µg/mL); MIC (Bacillus cereus [20]): 156 µM (≈ 95.3 µg/mL)

Q: Which results are given for CN1CCCN(Cc2ccc(F)cc2)P12=NP(N1CCCCC1)(N1CCCCC1)=NP(N1CCCCC1)(N1CCCCC1)=N2 (centres undefined)?
A: zone of inhibition at 250 µM (Candida albicans [14]): 18.3 mm; zone of inhibition at 250 µM (Candida tropicalis [15]): 20 mm; Activity (HeLa [21]): Active; Activity (HeLa [2]): Dose-dependent effect; Activity (Escherichia coli [3]): Active; Activity (Escherichia coli [4]): Active; MIC (Candida albicans [16]): 9.8 µM (≈ 6.52 µg/mL); MIC (Candida tropicalis [17]): 19.5 µM (≈ 13 µg/mL)

Q: Which results are given for CC(=O)N1CCN(c2ccc(OCC3COC(Cn4ccnc4)(c4ccc(Cl)cc4Cl)O3)cc2)CC1 (centres undefined) [KETOCONAZOLE]?
A: zone of inhibition at 50 µg/disc (Candida albicans [22]): 29 mm; zone of inhibition at 50 µg/disc (Candida tropicalis [23]): 29 mm

Q: CCN1CCN(Cc2ccc(F)cc2)P12=NP(N1CCCCC1)(N1CCCCC1)=NP(N1CCCCC1)(N1CCCCC1)=N2 (centres undefined) was tested. Which zone of inhibition at 250 µM (Candida albicans [14]) did it give?
A: 12.3 mm

Q: And the zone of inhibition at 250 µM (Candida tropicalis [15])?
A: 17.3 mm

Q: And the zone of inhibition at 250 µM (Bacillus subtilis [1])?
A: 10.7 mm

Q: And the Activity (HeLa [2])?
A: Dose-dependent effect

Q: What about the Activity (Escherichia coli [3]) of the same compound?
A: Active

Q: And the Activity (Escherichia coli [4])?
A: Active

Q: What about the MIC (Candida albicans [16]) of the same compound?
A: 625 µM (≈ 416 µg/mL)

Q: And the MIC (Bacillus subtilis [5])?
A: 156 µM (≈ 104 µg/mL)

Q: And the MIC (Candida tropicalis [17])?
A: 19.5 µM (≈ 13 µg/mL)

Q: How did the zone of inhibition at 10 µg/disc (Bacillus subtilis [24]) turn out when CC1(C)S[C@@H]2[C@H](NC(=O)[C@H](N)c3ccccc3)C(=O)N2[C@H]1C(=O)O [AMPICILLIN] was run?
A: 30.3 mm

Q: What about the zone of inhibition at 10 µg/disc (Bacillus cereus [25]) of the same compound?
A: 26.3 mm

Q: How did the Activity (HeLa [6]) turn out when CC(=O)O[C@H]1C(=O)[C@@]2(C)[C@H]([C@H](OC(=O)c3ccccc3)[C@]3(O)C[C@H](OC(=O)[C@H](O)[C@@H](NC(=O)c4ccccc4)c4ccccc4)C(C)=C1C3(C)C)[C@]1(OC(C)=O)CO[C@@H]1C[C@@H]2O was run?
A: Active

Q: What about the Activity (HeLa [2]) of the same compound?
A: Dose-dependent effect

Q: For CCN1CCN(Cc2ccc(F)cc2)P12=NP(N1CCC3(CC1)OCCO3)(N1CCC3(CC1)OCCO3)=NP(N1CCC3(CC1)OCCO3)(N1CCC3(CC1)OCCO3)=N2 (centres undefined), which Activity (HeLa [6]) is on record?
A: inactive

Q: And the Activity (Escherichia coli [3])?
A: Active

Q: And the Activity (Escherichia coli [4])?
A: Active

Q: What does the source list for CN1CCCN(Cc2ccc(F)cc2)P12=NP(N1CCC3(CC1)OCCO3)(N1CCC3(CC1)OCCO3)=NP(N1CCC3(CC1)OCCO3)(N1CCC3(CC1)OCCO3)=N2 (centres undefined)?
A: Activity (HeLa [6]): 49%; Activity (HeLa [8]): Active; Activity (HeLa [9]): inactive; Activity (HeLa [10]): Active; Activity (HeLa [11]): Active; Activity (Escherichia coli [3]): Active; Activity (Escherichia coli [4]): Active
